Source: patent publication US7030102B1, “Highly bioavailable coenzyme Q-10 cyclodextrin complex” (BioActives, LLC, priority 2003, dated 2006)

What was measured:
[1] = test system: Caco2 intestinal cell model; conditions: Totterman et al. 1997, Ono et al. 2001; cited from earlier work
Caco2 cells = assay: In vitro uptake of CoQ-10 in Caco2 cells; assay type: in vitro ADME, human; conditions: 100 μg CoQ-10/flask, sum of reduced and oxidized forms, control = endogenous level
Procedure: The cellular uptake of the CoQ-10 from the cyclodextrin complexes was determined in vitro in model cell culture systems. For example, the uptake was determined using an in vitro Caco2 intestinal cell culture model indicative of in vivo intestinal absorption. This cell line has been used as a model system to examine the selective characteristics of intestinal absorption of compounds, such as vitamin E (Traber et al., 1990), retinol, beta lactoglobulin, palmitic acid (Puyol et al., 1995), carotenoids (Garrett et al., 1999), and polyamines (Turchanowa et al., 2001). […] CoQ-10 incorporated into mixed micelles was used for comparison.
The uptake of CoQ-10 from the cyclodextrin complex dried by different methods was compared to commercially available CoQ-10 powder (99% pure, used in hard capsules) and CoQ-10 powder incorporated into mixed micelles, simulating the digestive process.
The mixed micelles were prepared by the method of Garrett et al. (1999) using sodium taurocholate (bile salt), mono-acylglycerol, oleic acid, phosphatidyl choline, lysophosphatidylcholine, and CoQ-10 in phosphate buffered saline (PBS). The CoQ-10/cyclodextrin complexes were dispersed in PBS. The stock solutions contained 30 mg CoQ-10/10 ml.
The cellular uptake of CoQ-10 as a function of media concentration and exposure time was determined based on the method of Garrett et al. (1999). Caco-2 (ATCC, Rockville, Md.) cells were maintained in high glucose DMEM with 15 mM HEPES and 10% heat inactivated fetal bovine serum, nonessential amino acids, glutamine, and pyruvate in a humidified atmosphere at 5% CO2 and 37° C. The cells were allowed to reach confluency (5–6 days after subculture) and differentiate (14 days) in 25 cm^2 flasks before the start of the experiment.
The stock test samples were diluted in the culture medium for the experiment. The monolayers were washed with PBS before adding the test samples at known CoQ-10 concentration (100 μg/flask). […] The cultures were incubated as before and the CoQ-10 uptake was terminated at indicated times. […] The chromatograms were monitored at 275 nm.

Row | Molecule | Cytotoxicity / effect on Caco2 cells [1] | Cellular Total CoQ-10 (Treated/Control) (Caco2 cells; 5 hr incubation) | Cellular Total CoQ-10 (Treated/Control) (Caco2 cells; 10 hr incubation) | Cellular Total CoQ-10 (Treated/Control) (Caco2 cells; 24 hr incubation)
1 | dimethyl β-cyclodextrin | dose dependent cytotoxicity |  |  | 
2 | maltosyl-α-cyclodextrin | less toxic as compared to α-cyclodextrin |  |  | 
3 | COC1=C(OC)C(=O)C(C/C=C(\C)CC/C=C(\C)CC/C=C(\C)CC/C=C(\C)CC/C=C(\C)CC/C=C(\C)CC/C=C(\C)CC/C=C(\C)CC/C=C(\C)CCC=C(C)C)=C(C)C1=O [CoQ-10 Powder, Coenzyme Q-10] |  | 1.0 | 1.0 | 1.0
4 | OC[C@H]1O[C@@H]2O[C@H]3[C@H](O)[C@@H](O)[C@@H](O[C@H]4[C@H](O)[C@@H](O)[C@@H](O[C@H]5[C@H](O)[C@@H](O)[C@@H](O[C@H]6[C@H](O)[C@@H](O)[C@@H](O[C@H]7[C@H](O)[C@@H](O)[C@@H](O[C@H]8[C@H](O)[C@@H](O)[C@@H](O[C@H]9[C@H](O)[C@@H](O)[C@@H](O[C@H]1[C@H](O)[C@H]2O)O[C@@H]9CO)O[C@@H]8CO)O[C@@H]7CO)O[C@@H]6CO)O[C@@H]5CO)O[C@@H]4CO)O[C@@H]3CO [γ-Cyclodextrin] | least effect even at a relatively high concentration of 150 mM |  |  | 
